Measured values taken from the NIST ThermoML archive (doi:10.1021/je0602824).

Assay: xn = mol fraction of the nth substance listed
Conditions: 101 kPa, Liquid

CCOS(=O)(=O)[O-].CCn1cc[n+](C)c1 [1-ethyl-3-methylimidazolium ethyl sulfate] + O
Conditions | mass density [kg/m3] | viscosity [mPa·s]
278.15 K, x2 = 0 | 1251.12 | 308
278.15 K, x2 = 0.0001 | – | 308
278.15 K, x2 = 0.2112 | 1246.59 | –
278.15 K, x2 = 0.2245 | – | 150
278.15 K, x2 = 0.4084 | – | 83
278.15 K, x2 = 0.4119 | 1239.56 | –
278.15 K, x2 = 0.5939 | 1227.74 | –
278.15 K, x2 = 0.5976 | – | 45
278.15 K, x2 = 0.7669 | 1201.83 | –
278.15 K, x2 = 0.7675 | – | 22
278.15 K, x2 = 0.8487 | 1175.63 | –
278.15 K, x2 = 0.9292 | 1120.63 | 6
278.15 K, x2 = 0.9683 | 1066.86 | –
278.15 K, x2 = 0.9916 | 1021.13 | –
288.15 K, x2 = 0 | 1244.13 | 166
288.15 K, x2 = 0.2112 | 1239.79 | –
288.15 K, x2 = 0.2245 | – | 86
288.15 K, x2 = 0.4084 | – | 49
288.15 K, x2 = 0.4119 | 1232.7 | –
288.15 K, x2 = 0.5939 | 1220.8 | –
288.15 K, x2 = 0.5976 | – | 27
288.15 K, x2 = 0.7669 | 1194.85 | –
288.15 K, x2 = 0.7675 | – | 14
288.15 K, x2 = 0.8487 | 1168.83 | –
288.15 K, x2 = 0.9292 | 1115.02 | 5
288.15 K, x2 = 0.9683 | 1063.25 | –
288.15 K, x2 = 0.9916 | 1019.46 | –
298.15 K, x2 = 0 | 1237.37 | 95
298.15 K, x2 = 0.2112 | 1232.99 | –
298.15 K, x2 = 0.2245 | – | 54
298.15 K, x2 = 0.4084 | – | 33
298.15 K, x2 = 0.4119 | 1225.85 | –
298.15 K, x2 = 0.5939 | 1213.87 | –
298.15 K, x2 = 0.5976 | – | 19
298.15 K, x2 = 0.7669 | 1187.81 | –
298.15 K, x2 = 0.7675 | – | 10
298.15 K, x2 = 0.8487 | 1161.92 | –
298.15 K, x2 = 0.9292 | 1109.14 | 4
298.15 K, x2 = 0.9683 | 1059.04 | –
298.15 K, x2 = 0.9916 | 1016.78 | –
308.15 K, x2 = 0 | 1230.61 | 62
308.15 K, x2 = 0.2112 | 1226.21 | –
308.15 K, x2 = 0.2245 | – | 36
308.15 K, x2 = 0.4084 | – | 23
308.15 K, x2 = 0.4119 | 1219.02 | –
308.15 K, x2 = 0.5939 | 1206.92 | –
308.15 K, x2 = 0.5976 | – | 14
308.15 K, x2 = 0.7669 | 1180.72 | –
308.15 K, x2 = 0.7675 | – | 8
308.15 K, x2 = 0.8487 | 1154.9 | –
308.15 K, x2 = 0.9292 | 1103 | 4
308.15 K, x2 = 0.9683 | 1054.27 | –
308.15 K, x2 = 0.9916 | 1013.26 | –
318.15 K, x2 = 0 | 1223.9 | 41
318.15 K, x2 = 0.2112 | 1219.45 | –
318.15 K, x2 = 0.2245 | – | 26
318.15 K, x2 = 0.4084 | – | 17
318.15 K, x2 = 0.4119 | 1212.21 | –
318.15 K, x2 = 0.5939 | 1199.97 | –
318.15 K, x2 = 0.5976 | – | 11
318.15 K, x2 = 0.7669 | 1173.56 | –
318.15 K, x2 = 0.7675 | – | 6
318.15 K, x2 = 0.8487 | 1147.77 | –
318.15 K, x2 = 0.9292 | 1096.59 | 3
318.15 K, x2 = 0.9683 | 1049.01 | –
318.15 K, x2 = 0.9916 | 1009.03 | –
328.15 K, x2 = 0 | 1217.23 | 30
328.15 K, x2 = 0.2112 | 1212.74 | –
328.15 K, x2 = 0.2245 | – | 19
328.15 K, x2 = 0.4084 | – | 13
328.15 K, x2 = 0.4119 | 1205.41 | –
328.15 K, x2 = 0.5939 | 1193.01 | –
328.15 K, x2 = 0.5976 | – | 9
328.15 K, x2 = 0.7669 | 1166.34 | –
328.15 K, x2 = 0.7675 | – | 6
328.15 K, x2 = 0.8487 | 1140.52 | –
328.15 K, x2 = 0.9292 | 1089.92 | 3
328.15 K, x2 = 0.9683 | 1043.29 | –
328.15 K, x2 = 0.9916 | 1004.16 | –
338.15 K, x2 = 0 | 1210.6 | 21
338.15 K, x2 = 0.2112 | 1206.05 | –
338.15 K, x2 = 0.2245 | – | 15
338.15 K, x2 = 0.4084 | – | 11
338.15 K, x2 = 0.4119 | 1198.63 | –
338.15 K, x2 = 0.5939 | 1186.03 | –
338.15 K, x2 = 0.5976 | – | 7
338.15 K, x2 = 0.7669 | 1159.05 | –
338.15 K, x2 = 0.7675 | – | 5
338.15 K, x2 = 0.8487 | 1133.14 | –
338.15 K, x2 = 0.9292 | 1083 | 3
338.15 K, x2 = 0.9683 | 1037.15 | –
338.15 K, x2 = 0.9916 | 998.72 | –
348.15 K, x2 = 0 | 1204.01 | 17
348.15 K, x2 = 0.2112 | 1199.4 | –
348.15 K, x2 = 0.2245 | – | 12
348.15 K, x2 = 0.4084 | – | 9
348.15 K, x2 = 0.4119 | 1191.91 | –
348.15 K, x2 = 0.5939 | 1179.05 | –
348.15 K, x2 = 0.5976 | – | 6
348.15 K, x2 = 0.7669 | 1151.68 | –
348.15 K, x2 = 0.7675 | – | 4
348.15 K, x2 = 0.8487 | 1125.7 | –
348.15 K, x2 = 0.9292 | 1075.83 | 2
348.15 K, x2 = 0.9683 | 1030.61 | –
348.15 K, x2 = 0.9916 | 992.76 | –

CCn1cc[n+](C)c1.O=C([O-])C(F)(F)F [1-ethyl-3-methylimidazolium trifluoroacetate] + O
Conditions | mass density [kg/m3] | viscosity [mPa·s]
278.15 K, x2 = 0 | 1306.89 | 78
278.15 K, x2 = 0.2042 | – | 56
278.15 K, x2 = 0.205 | 1299.84 | –
278.15 K, x2 = 0.3952 | – | 40
278.15 K, x2 = 0.3983 | 1291.27 | –
278.15 K, x2 = 0.5808 | 1278 | 25
278.15 K, x2 = 0.7565 | – | 16
278.15 K, x2 = 0.7573 | 1248.38 | –
278.15 K, x2 = 0.842 | 1216.87 | –
278.15 K, x2 = 0.9256 | 1151.47 | 6
278.15 K, x2 = 0.9667 | 1086.88 | –
278.15 K, x2 = 0.9912 | 1026.68 | –
288.15 K, x2 = 0 | 1298.81 | 48
288.15 K, x2 = 0.2042 | – | 35
288.15 K, x2 = 0.205 | 1291.82 | –
288.15 K, x2 = 0.3952 | – | 26
288.15 K, x2 = 0.3983 | 1283.25 | –
288.15 K, x2 = 0.5808 | 1269.93 | 17
288.15 K, x2 = 0.7565 | – | 11
288.15 K, x2 = 0.7573 | 1240.21 | –
288.15 K, x2 = 0.842 | 1208.86 | –
288.15 K, x2 = 0.9256 | 1144.67 | 5
288.15 K, x2 = 0.9667 | 1082.51 | –
288.15 K, x2 = 0.9912 | 1024.93 | –
298.15 K, x2 = 0 | 1290.8 | 32
298.15 K, x2 = 0.2042 | – | 24
298.15 K, x2 = 0.205 | 1283.85 | –
298.15 K, x2 = 0.3952 | – | 18
298.15 K, x2 = 0.3983 | 1275.26 | –
298.15 K, x2 = 0.5808 | 1261.85 | 12
298.15 K, x2 = 0.7565 | – | 8
298.15 K, x2 = 0.7573 | 1231.95 | –
298.15 K, x2 = 0.842 | 1200.76 | –
298.15 K, x2 = 0.9256 | 1137.65 | 4
298.15 K, x2 = 0.9667 | 1077.55 | –
298.15 K, x2 = 0.9912 | 1022.15 | –
308.15 K, x2 = 0 | 1282.85 | 23
308.15 K, x2 = 0.2042 | – | 17
308.15 K, x2 = 0.205 | 1275.92 | –
308.15 K, x2 = 0.3952 | – | 14
308.15 K, x2 = 0.3983 | 1267.29 | –
308.15 K, x2 = 0.5808 | 1253.77 | 9
308.15 K, x2 = 0.7565 | – | 6
308.15 K, x2 = 0.7573 | 1223.66 | –
308.15 K, x2 = 0.842 | 1192.57 | –
308.15 K, x2 = 0.9256 | 1130.4 | 3
308.15 K, x2 = 0.9667 | 1072.06 | –
308.15 K, x2 = 0.9912 | 1018.5 | –
318.15 K, x2 = 0 | 1274.95 | 17
318.15 K, x2 = 0.2042 | – | 13
318.15 K, x2 = 0.205 | 1268.04 | –
318.15 K, x2 = 0.3952 | – | 10
318.15 K, x2 = 0.3983 | 1259.34 | –
318.15 K, x2 = 0.5808 | 1245.67 | 8
318.15 K, x2 = 0.7565 | – | 5
318.15 K, x2 = 0.7573 | 1215.3 | –
318.15 K, x2 = 0.842 | 1184.27 | –
318.15 K, x2 = 0.9256 | 1122.93 | 3
318.15 K, x2 = 0.9667 | 1066.08 | –
318.15 K, x2 = 0.9912 | 1014.11 | –
328.15 K, x2 = 0 | 1267.12 | 13
328.15 K, x2 = 0.2042 | – | 10
328.15 K, x2 = 0.205 | 1260.21 | –
328.15 K, x2 = 0.3952 | – | 8
328.15 K, x2 = 0.3983 | 1251.41 | –
328.15 K, x2 = 0.5808 | 1237.55 | 6
328.15 K, x2 = 0.7565 | – | 5
328.15 K, x2 = 0.7573 | 1206.84 | –
328.15 K, x2 = 0.842 | 1175.86 | –
328.15 K, x2 = 0.9256 | 1115.2 | 3
328.15 K, x2 = 0.9667 | 1059.66 | –
328.15 K, x2 = 0.9912 | 1009.07 | –
338.15 K, x2 = 0 | 1259.35 | 10
338.15 K, x2 = 0.2042 | – | 8
338.15 K, x2 = 0.205 | 1252.42 | –
338.15 K, x2 = 0.3952 | – | 7
338.15 K, x2 = 0.3983 | 1243.49 | –
338.15 K, x2 = 0.5808 | 1229.41 | 6
338.15 K, x2 = 0.7565 | – | 4
338.15 K, x2 = 0.7573 | 1198.32 | –
338.15 K, x2 = 0.842 | 1167.33 | –
338.15 K, x2 = 0.9256 | 1107.28 | 2
338.15 K, x2 = 0.9667 | 1052.83 | –
338.15 K, x2 = 0.9912 | 1002.87 | –
348.15 K, x2 = 0 | 1251.63 | 9
348.15 K, x2 = 0.2042 | – | 7
348.15 K, x2 = 0.205 | 1244.66 | –
348.15 K, x2 = 0.3952 | – | 6
348.15 K, x2 = 0.3983 | 1235.59 | –
348.15 K, x2 = 0.5808 | 1221.23 | 5
348.15 K, x2 = 0.7565 | – | 4
348.15 K, x2 = 0.7573 | 1189.98 | –
348.15 K, x2 = 0.842 | 1158.69 | –
348.15 K, x2 = 0.9256 | 1099.05 | 2
348.15 K, x2 = 0.9667 | 1045.56 | –
348.15 K, x2 = 0.9912 | 997.23 | –
